Laboratory results published in the supplement of paper PMC10307832.

Experiments:
Experiment in all cases: relative viability (nuclei count vs DMSO), 5 days (fraction); higher = more cells survive
Venetoclax + Palbociclib = compound: CC1(C)CCC(CN2CCN(c3ccc(C(=O)NS(=O)(=O)c4ccc(NCC5CCOCC5)c([N+](=O)[O-])c4)c(Oc4cnc5[nH]ccc5c4)c3)CC2)=C(c2ccc(Cl)cc2)C1 [Venetoclax] + CC(=O)c1c(C)c2cnc(Nc3ccc(N4CCNCC4)cn3)nc2n(C2CCCC2)c1=O [Palbociclib] (partner 0.5 µM)
Outline: (§1)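 After 5 days of treatment, lung cancer cells in 1536-well plates were fixed and stained in a single step (final 0.05% Triton X-100, 1% formaldehyde, 1 ug/ml Hoechst) and their nuclei counted on 4× images. Treatment had been applied by pin tool the day after seeding as one drug alone or as a fixed anchor-drug dose with five library-drug doses (not always all listed) in √10 steps. Relative viability is the nuclei count of treated wells divided by that of vehicle wells, and values are medians of duplicate plates.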

Venetoclax + Navitoclax = compound: CC1(C)CCC(CN2CCN(c3ccc(C(=O)NS(=O)(=O)c4ccc(NCC5CCOCC5)c([N+](=O)[O-])c4)c(Oc4cnc5[nH]ccc5c4)c3)CC2)=C(c2ccc(Cl)cc2)C1 [Venetoclax] + CC1(C)CCC(c2ccc(Cl)cc2)=C(CN2CCN(c3ccc(C(=O)NS(=O)(=O)c4ccc(N[C@H](CCN5CCOCC5)CSc5ccccc5)c(S(=O)(=O)C(F)(F)F)c4)cc3)CC2)C1 [Navitoclax] (partner 0.5 µM)
Outline: as §1

Selumetinib + Crizotinib = compound: Cn1cnc2c(F)c(Nc3ccc(Br)cc3Cl)c(C(=O)NOCCO)cc21 [Selumetinib] + C[C@@H](Oc1cc(-c2cnn(C3CCNCC3)c2)cnc1N)c1c(Cl)ccc(F)c1Cl [Crizotinib] (partner 1 µM)
Outline: as §1

Selumetinib + Linsitinib = compound: Cn1cnc2c(F)c(Nc3ccc(Br)cc3Cl)c(C(=O)NOCCO)cc21 [Selumetinib] + C[C@]1(O)C[C@@H](c2nc(-c3ccc4ccc(-c5ccccc5)nc4c3)c3c(N)nccn32)C1 [Linsitinib] (partner 1 µM)
Outline: as §1

Row | Cell Line | relative viability (Venetoclax + Palbociclib; first compound 0.01 µM) | relative viability (Venetoclax + Palbociclib; first compound 0.03162 µM) | relative viability (Venetoclax + Palbociclib; first compound 0.1 µM) | relative viability (Venetoclax + Palbociclib; first compound 0.3162 µM) | relative viability (Venetoclax + Palbociclib; first compound 1 µM) | relative viability (Venetoclax + Navitoclax; first compound 0.01 µM) | relative viability (Venetoclax + Navitoclax; first compound 0.03162 µM) | relative viability (Venetoclax + Navitoclax; first compound 0.1 µM) | relative viability (Venetoclax + Navitoclax; first compound 0.3162 µM) | relative viability (Venetoclax + Navitoclax; first compound 1 µM) | relative viability (Selumetinib + Crizotinib; first compound 0.02 µM) | relative viability (Selumetinib + Crizotinib; first compound 0.06325 µM) | relative viability (Selumetinib + Crizotinib; first compound 0.2 µM) | relative viability (Selumetinib + Crizotinib; first compound 0.6325 µM) | relative viability (Selumetinib + Linsitinib; first compound 0.02 µM) | relative viability (Selumetinib + Linsitinib; first compound 0.06325 µM) | relative viability (Selumetinib + Linsitinib; first compound 0.2 µM) | relative viability (Selumetinib + Linsitinib; first compound 0.6325 µM)
1 | HCC-15 | 0.755 | 0.672 | 0.419 | 0.655 | 0.508 | 0.674 | 0.707 | 0.635 | 0.621 | 0.588 | 0.669 | 0.498 | 0.395 | 0.256 | 0.674 | 0.502 | 0.351 | 0.232
2 | HCC-44 | 0.928 | 0.954 | 0.934 | 0.899 | 0.919 | 0.987 | 0.943 | 0.891 | 0.979 | 0.975 | 0.883 | 0.753 | 0.876 | 0.876 | 0.701 | 0.639 | 0.539 | 0.575
3 | HCC-78 | 0.456 | 0.534 | 0.437 | 0.433 | 0.469 | 0.97 | 0.895 | 0.688 | 0.755 | 0.84 | 0.276 | 0.306 | 0.281 | 0.299 | 0.446 | 0.402 | 0.419 | 0.378
4 | HCC-366 | 0.391 | 0.359 | 0.314 | 0.37 | 0.326 | 1.04 | 1 | 1.01 | 0.987 | 0.993 | 0.492 | 0.462 | 0.308 | 0.238 | 0.525 | 0.406 | 0.249 | 0.229
5 | IA-LM |  |  |  |  |  | 0.84 | 0.899 | 0.807 | 0.763 | 0.662 | 0.662 | 0.54 | 0.314 | 0.335 | 0.406 | 0.296 | 0.295 | 0.254
6 | LCLC-103H | 0.518 | 0.479 | 0.491 | 0.437 | 0.428 |  |  |  |  |  | 1.02 | 0.846 | 0.857 | 0.948 | 1.04 | 0.952 | 0.804 | 0.968
7 | NCI-H358 | 0.131 | 0.114 | 0.13 | 0.13 | 0.131 |  |  |  |  |  | 0.467 | 0.368 | 0.326 | 0.319 | 0.472 | 0.512 | 0.424 | 0.365
8 | NCI-H522 | 0.929 | 0.95 | 0.925 | 0.816 | 0.968 |  |  |  |  |  |  |  |  |  |  |  |  | 
9 | NCI-H596 |  |  |  |  |  | 0.892 | 0.935 | 0.916 | 0.887 | 0.919 | 0.966 | 0.875 | 0.845 | 0.599 | 1.07 | 1.02 | 1.01 | 0.776
10 | NCI-H650 | 0.319 | 0.387 | 0.345 | 0.366 | 0.303 |  |  |  |  |  | 0.793 | 0.593 | 0.575 | 0.67 | 1.18 | 1.03 | 0.941 | 1.07
11 | NCI-H661 | 0.401 | 0.411 | 0.396 | 0.392 | 0.392 |  |  |  |  |  | 1.25 | 0.945 | 1.07 | 1.23 | 0.614 | 0.455 | 0.469 | 0.457
12 | NCI-H1299 |  |  |  |  |  | 1.07 | 1.04 | 1.01 | 1.01 | 1 | 1.06 | 0.961 | 0.939 | 0.84 | 0.996 | 0.833 | 0.88 | 0.677
13 | NCI-H1395 | 0.62 | 0.609 | 0.576 | 0.603 | 0.58 | 1.15 | 1.12 | 1.16 | 1.13 | 1.55 |  |  |  |  | 1.05 | 0.939 | 0.973 | 1.08
14 | NCI-H1563 |  |  |  |  |  |  |  |  |  |  | 0.858 | 0.825 | 0.865 | 0.781 | 1.15 | 1.2 | 1.11 | 1.11
15 | NCI-H1648 |  | 0.283 | 0.255 | 0.249 | 0.225 |  |  |  |  |  |  |  |  |  |  |  |  | 
16 | NCI-H1650 | 0.315 | 0.364 | 0.323 | 0.419 | 0.306 | 1.14 | 1.3 |  | 1.02 | 0.968 | 0.97 | 0.863 | 0.888 | 0.786 |  |  |  | 
17 | NCI-H1703 |  |  |  |  |  | 1.33 | 1.24 | 0.969 | 1.01 | 1.04 | 0.664 | 0.653 | 0.647 | 0.616 | 0.75 | 0.637 | 0.67 | 0.824
18 | NCI-H1793 | 0.296 | 0.304 | 0.306 | 0.327 | 0.27 | 0.375 | 0.454 | 0.287 | 0.461 | 0.382 |  |  |  |  | 0.883 | 0.817 | 0.419 | 0.392
19 | NCI-H2170 | 0.378 | 0.412 | 0.389 | 0.368 | 0.355 | 0.746 | 0.688 | 0.521 | 0.509 | 0.531 | 1.17 | 1.11 | 1.03 | 1.15 |  |  |  | 
20 | NCI-H2342 | 0.564 | 0.491 | 0.56 | 0.508 | 0.52 |  |  |  |  |  |  |  |  |  |  |  |  | 
21 | SW 900 | 0.506 | 0.516 | 0.497 | 0.552 | 0.498 |  |  |  |  |  |  |  |  |  |  |  |  | 
